This is an account of results in ChEMBL document CHEMBL5291721, “A preclinical secondary pharmacology resource illuminates target-adverse drug reaction associations of marketed drugs” (Nat Commun, 2023).

SMILES strings stand for the structures. Where only a bound is given, the exact number is not on record here.

The target of assay [1] is T1, Alpha-2C adrenergic receptor (Homo sapiens, UniProt P18825).
T1 sequence (P18825 whole entry): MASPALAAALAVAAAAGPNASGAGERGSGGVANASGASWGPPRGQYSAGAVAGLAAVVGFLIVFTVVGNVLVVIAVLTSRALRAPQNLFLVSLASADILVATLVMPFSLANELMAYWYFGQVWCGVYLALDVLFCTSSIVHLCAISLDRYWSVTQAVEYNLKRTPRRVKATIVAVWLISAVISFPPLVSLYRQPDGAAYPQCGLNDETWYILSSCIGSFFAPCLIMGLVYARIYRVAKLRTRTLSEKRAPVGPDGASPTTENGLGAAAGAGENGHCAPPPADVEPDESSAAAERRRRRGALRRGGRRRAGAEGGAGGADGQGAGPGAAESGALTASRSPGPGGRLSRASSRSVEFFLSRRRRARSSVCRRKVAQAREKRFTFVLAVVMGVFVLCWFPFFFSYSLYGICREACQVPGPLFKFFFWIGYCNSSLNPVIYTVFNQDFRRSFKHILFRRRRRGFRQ
The assay is classed as functional.

In a further assay the target is T2, Androgen receptor (Homo sapiens, UniProt P10275).
T2 sequence (P10275 whole entry): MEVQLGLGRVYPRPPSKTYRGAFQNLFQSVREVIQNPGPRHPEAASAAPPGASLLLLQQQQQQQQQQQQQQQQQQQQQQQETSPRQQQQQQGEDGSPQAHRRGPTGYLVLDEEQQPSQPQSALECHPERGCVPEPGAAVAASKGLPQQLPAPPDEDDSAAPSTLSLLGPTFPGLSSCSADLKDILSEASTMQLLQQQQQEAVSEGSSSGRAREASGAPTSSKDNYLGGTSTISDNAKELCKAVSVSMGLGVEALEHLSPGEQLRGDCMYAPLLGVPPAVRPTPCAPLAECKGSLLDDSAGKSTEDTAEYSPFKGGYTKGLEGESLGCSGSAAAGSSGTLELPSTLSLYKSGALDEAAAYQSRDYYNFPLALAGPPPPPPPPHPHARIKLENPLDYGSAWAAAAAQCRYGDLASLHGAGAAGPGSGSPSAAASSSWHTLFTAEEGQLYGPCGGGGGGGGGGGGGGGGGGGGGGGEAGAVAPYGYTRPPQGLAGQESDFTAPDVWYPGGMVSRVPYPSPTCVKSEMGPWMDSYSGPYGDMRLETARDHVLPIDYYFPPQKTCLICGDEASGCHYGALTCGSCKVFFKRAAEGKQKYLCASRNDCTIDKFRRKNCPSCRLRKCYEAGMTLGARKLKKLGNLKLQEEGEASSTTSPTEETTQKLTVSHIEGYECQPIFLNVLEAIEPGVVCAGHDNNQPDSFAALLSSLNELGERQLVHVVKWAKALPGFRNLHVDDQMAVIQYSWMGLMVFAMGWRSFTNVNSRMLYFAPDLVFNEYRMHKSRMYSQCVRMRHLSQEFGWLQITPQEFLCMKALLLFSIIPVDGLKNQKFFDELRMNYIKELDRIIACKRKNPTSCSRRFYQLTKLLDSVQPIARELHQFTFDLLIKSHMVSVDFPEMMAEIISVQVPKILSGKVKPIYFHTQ

The next assay concerns the target Vasopressin V2 receptor (Homo sapiens, UniProt P30518).
Assay [2] addresses Gamma-aminobutyric acid receptor subunit alpha-1 (Rattus norvegicus, UniProt P62813).
Assay [3] addresses Sodium-dependent noradrenaline transporter (Homo sapiens, UniProt P23975).
Assay [4] has as its target T3, Mu-type opioid receptor (Homo sapiens, UniProt P35372).
Assay [5] deals with cGMP-inhibited 3',5'-cyclic phosphodiesterase 3A (Homo sapiens, UniProt Q14432). Type of assay: functional.
The target of assay [6] is T4, Alpha-1A adrenergic receptor (Homo sapiens, UniProt P35348).
T4 sequence (P35348 whole entry): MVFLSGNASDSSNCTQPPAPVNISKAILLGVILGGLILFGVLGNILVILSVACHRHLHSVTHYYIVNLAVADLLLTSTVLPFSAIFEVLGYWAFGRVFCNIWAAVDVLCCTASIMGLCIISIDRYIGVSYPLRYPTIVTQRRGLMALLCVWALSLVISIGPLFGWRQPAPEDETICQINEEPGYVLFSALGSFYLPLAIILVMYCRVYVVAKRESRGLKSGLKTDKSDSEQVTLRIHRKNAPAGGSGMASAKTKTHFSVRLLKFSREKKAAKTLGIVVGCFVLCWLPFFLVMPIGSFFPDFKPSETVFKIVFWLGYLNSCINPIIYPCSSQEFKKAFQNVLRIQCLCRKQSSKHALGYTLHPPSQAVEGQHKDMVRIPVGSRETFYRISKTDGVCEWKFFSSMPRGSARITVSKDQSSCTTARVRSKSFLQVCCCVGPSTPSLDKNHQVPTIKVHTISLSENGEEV
The assay is classed as functional, cell-based.

Assay [7] addresses T5, Muscarinic acetylcholine receptor M2 (Homo sapiens, UniProt P08172).
T5 sequence (P08172 whole entry): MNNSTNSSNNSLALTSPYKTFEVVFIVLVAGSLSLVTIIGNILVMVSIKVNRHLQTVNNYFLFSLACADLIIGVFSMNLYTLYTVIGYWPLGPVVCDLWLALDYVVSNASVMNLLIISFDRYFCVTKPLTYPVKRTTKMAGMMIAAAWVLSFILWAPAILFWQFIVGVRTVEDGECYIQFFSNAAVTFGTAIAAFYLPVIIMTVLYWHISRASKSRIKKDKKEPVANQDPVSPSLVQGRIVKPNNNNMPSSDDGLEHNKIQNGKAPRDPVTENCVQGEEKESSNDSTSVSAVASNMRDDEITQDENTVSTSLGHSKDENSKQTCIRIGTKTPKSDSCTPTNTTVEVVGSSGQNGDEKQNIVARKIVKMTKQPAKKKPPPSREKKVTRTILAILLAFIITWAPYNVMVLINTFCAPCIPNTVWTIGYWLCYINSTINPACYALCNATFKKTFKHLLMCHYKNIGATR
The assay is classed as functional, cell-based.

Assay [8] has as its target 5-hydroxytryptamine receptor 2B (Homo sapiens, UniProt P41595). Type of assay: functional, cell-based.
Assay [9] concerns the target T3, Mu-type opioid receptor. Kind of assay: biochemical. The assay is classed as functional.
Also: assay procedure not described here.

cGMP-inhibited 3',5'-cyclic phosphodiesterase 3A, sequence (Q14432 whole entry): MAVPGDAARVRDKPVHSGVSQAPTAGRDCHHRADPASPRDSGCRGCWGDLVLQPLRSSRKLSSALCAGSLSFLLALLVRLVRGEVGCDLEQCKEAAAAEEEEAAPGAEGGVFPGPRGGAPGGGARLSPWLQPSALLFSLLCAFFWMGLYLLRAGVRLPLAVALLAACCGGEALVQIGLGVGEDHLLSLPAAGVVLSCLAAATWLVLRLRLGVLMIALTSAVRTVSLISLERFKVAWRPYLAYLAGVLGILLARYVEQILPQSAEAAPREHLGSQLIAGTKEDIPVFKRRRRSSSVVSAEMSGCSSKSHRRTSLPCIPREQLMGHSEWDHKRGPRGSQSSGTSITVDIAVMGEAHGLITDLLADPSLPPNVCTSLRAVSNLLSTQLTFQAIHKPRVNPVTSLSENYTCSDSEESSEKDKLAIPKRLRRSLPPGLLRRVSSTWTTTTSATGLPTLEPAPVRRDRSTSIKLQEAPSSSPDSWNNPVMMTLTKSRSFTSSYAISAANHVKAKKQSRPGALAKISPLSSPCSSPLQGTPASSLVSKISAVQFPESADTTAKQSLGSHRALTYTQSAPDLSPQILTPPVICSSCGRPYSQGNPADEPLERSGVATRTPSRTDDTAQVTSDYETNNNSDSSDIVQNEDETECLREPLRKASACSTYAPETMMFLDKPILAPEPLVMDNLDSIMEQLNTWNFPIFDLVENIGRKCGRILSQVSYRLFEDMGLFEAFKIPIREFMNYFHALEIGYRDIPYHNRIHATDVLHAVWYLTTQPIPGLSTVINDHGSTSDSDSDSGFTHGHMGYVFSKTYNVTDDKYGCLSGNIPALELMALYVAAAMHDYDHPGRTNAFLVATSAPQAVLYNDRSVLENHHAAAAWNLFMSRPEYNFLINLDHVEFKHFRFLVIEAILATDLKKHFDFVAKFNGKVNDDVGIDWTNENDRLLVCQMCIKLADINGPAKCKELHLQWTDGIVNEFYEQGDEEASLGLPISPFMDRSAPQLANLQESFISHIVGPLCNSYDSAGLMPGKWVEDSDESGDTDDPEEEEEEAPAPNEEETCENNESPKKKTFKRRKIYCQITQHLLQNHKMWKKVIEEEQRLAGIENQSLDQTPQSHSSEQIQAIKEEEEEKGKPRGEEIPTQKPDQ
T3 sequence (P35372 whole entry): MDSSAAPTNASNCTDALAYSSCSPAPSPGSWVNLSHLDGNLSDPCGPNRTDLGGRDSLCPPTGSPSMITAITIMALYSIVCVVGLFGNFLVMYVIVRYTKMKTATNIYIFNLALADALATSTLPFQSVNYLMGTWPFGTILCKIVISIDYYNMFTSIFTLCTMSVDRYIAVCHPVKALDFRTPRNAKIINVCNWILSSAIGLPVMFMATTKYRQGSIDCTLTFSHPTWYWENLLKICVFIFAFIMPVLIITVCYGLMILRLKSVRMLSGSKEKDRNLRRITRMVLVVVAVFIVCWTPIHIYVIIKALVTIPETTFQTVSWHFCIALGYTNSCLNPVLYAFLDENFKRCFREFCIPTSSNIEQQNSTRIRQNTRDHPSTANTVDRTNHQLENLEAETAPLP
Sodium-dependent noradrenaline transporter, sequence (P23975 whole entry): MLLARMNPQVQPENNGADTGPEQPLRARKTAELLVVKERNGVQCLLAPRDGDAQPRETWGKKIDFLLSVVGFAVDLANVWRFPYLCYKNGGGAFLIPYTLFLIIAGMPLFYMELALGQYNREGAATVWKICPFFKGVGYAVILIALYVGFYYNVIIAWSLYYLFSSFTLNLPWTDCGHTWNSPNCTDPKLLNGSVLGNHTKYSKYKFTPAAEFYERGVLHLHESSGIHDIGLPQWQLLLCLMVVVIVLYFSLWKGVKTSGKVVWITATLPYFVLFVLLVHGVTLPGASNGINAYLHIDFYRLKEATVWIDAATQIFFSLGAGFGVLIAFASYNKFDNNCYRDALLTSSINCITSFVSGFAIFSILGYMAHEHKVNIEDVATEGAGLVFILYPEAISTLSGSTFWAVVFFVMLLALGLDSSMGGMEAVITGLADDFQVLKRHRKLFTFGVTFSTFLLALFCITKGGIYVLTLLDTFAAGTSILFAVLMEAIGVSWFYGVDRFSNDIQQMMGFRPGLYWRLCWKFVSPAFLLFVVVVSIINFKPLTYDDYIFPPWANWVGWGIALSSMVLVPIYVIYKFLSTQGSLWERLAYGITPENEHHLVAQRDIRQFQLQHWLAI
Gamma-aminobutyric acid receptor subunit alpha-1, sequence (P62813 whole entry): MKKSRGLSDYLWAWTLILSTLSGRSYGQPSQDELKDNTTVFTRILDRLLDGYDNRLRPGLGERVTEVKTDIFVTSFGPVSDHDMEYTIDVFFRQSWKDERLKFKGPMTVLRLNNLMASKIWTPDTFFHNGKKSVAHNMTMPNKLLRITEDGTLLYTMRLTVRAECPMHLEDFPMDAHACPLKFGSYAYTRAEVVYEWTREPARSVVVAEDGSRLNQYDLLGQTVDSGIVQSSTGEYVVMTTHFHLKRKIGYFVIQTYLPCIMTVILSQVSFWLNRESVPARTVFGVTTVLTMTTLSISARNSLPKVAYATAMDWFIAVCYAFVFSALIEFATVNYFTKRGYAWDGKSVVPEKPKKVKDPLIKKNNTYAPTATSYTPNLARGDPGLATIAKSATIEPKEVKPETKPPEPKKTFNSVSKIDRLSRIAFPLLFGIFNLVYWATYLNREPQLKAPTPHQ
5-hydroxytryptamine receptor 2B, sequence (P41595 whole entry): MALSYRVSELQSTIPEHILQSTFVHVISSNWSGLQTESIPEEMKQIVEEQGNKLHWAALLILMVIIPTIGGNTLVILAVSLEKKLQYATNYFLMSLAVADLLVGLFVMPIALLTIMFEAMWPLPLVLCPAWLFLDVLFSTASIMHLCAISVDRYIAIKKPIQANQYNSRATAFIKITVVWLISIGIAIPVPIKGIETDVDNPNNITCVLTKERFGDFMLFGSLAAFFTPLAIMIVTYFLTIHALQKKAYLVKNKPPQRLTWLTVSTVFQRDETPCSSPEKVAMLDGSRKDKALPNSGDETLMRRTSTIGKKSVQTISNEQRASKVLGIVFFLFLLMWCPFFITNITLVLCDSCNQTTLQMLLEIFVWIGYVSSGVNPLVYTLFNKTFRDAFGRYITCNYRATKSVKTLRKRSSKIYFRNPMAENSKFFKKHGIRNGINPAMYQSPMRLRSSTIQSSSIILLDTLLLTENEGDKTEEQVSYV
Vasopressin V2 receptor, sequence (P30518 whole entry): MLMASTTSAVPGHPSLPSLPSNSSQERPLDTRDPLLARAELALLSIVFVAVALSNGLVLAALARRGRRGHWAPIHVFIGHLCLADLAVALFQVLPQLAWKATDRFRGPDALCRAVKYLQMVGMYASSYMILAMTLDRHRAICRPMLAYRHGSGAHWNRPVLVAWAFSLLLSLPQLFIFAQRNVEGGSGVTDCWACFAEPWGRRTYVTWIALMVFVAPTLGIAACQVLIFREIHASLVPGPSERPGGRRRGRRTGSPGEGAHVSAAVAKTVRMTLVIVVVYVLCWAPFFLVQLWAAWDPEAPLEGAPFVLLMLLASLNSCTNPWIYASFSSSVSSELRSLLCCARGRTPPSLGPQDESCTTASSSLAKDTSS

In general, AC50 refers to the concentration giving half of the maximal activity seen. A lower AC50 goes with greater potency. Regarding `O=C(/C=C/c1cccc(S(=O)(=O)Nc2ccccc2)c1)NO` [BELINOSTAT], the AC50 was above 10 µM in assay [1]; above 30 µM at Androgen receptor; above 30 µM at Vasopressin V2 receptor; above 30 µM in [2]; above 30 µM in assay [3]; above 30 µM at Mu-type opioid receptor [4]. Besides, the AC50 in assay [5] was above 30 µM.
With `N#Cc1ccc(Oc2ccc3c(c2)COB3O)cc1` [CRISABOROLE], the AC50 (at Androgen receptor; in [2]; in [3]; in assay [5]) was above 30 µM in each case.
With `O=S1(=O)CCN(CN2CCS(=O)(=O)NC2)CN1` [TAUROLIDINE], the AC50 (in assay [6]; in assay [1]; at Androgen receptor; in assay [7]; in assay [2]; in assay [8]) was above 30 µM each time. In addition, the AC50 (on Mu-type opioid receptor [9]; in [3]; in assay [5]) was above 30 µM in each case.
With `C[C@@H]1C[C@H]2[C@@H]3C[C@H](F)C4=CC(=O)C=C[C@]4(C)[C@@]3(F)[C@@H](O)C[C@]2(C)[C@@]1(OC(=O)c1ccco1)C(=O)SCF` [FLUTICASONE FUROATE], the concentration at half-maximal activity (AC50) in assay [6] was above 30 µM; in assay [1], above 10 µM; at Androgen receptor, 0.13 µM; on Vasopressin V2 receptor it was above 10 µM; in [7], above 10 µM; in [2] it was above 30 µM. Besides, the half-maximal activity concentration (AC50) in [8] was above 10 µM; in assay [3], above 30 µM; at Mu-type opioid receptor [4], above 30 µM; in [5], above 30 µM.
